The source of these data is paper PMC5573416, “Inhibiting mycobacterial tryptophan synthase by targeting the inter-subunit interface” (Scientific Reports, 2017).

Experiment [1] has as its target T1, Mtb tryptophan synthase (TrpA and TrpB-F188L) (Mycobacterium tuberculosis, UniProt P9WFX9+P9WFY1, F199L). The experiment is classed as biochemical.
The target of experiment [2] is T1, Mtb tryptophan synthase (TrpA and TrpB-F188L). The experiment is classed as biochemical. This is another data set of the same source.

For the molecule `CNS(=O)(=O)c1ccc2c(c1)CCN2C(=O)c1ccc(C)s1` [Compound 3], in experiment [1], the “L-tryptophan produced in presence of inhibitor (GF-HPLC)” value is reported as “L-tryptophan was produced”.
As for `CNS(=O)(=O)c1ccc2c(c1)CCN2C(=O)c1ccccc1F` [Compound 2], the “L-tryptophan synthesis in presence of inhibitor (TLC)” value in experiment [2] was “relatively the same amount of tryptophan”.
